Results from patent EP2271935B1, “METHOD AND KIT FOR THE EX VIVO EVALUATION OF THE RESPONSE OF A TUMOR TO CONDITIONS TO BE TESTED” (Universität Leipzig, priority 2008, dated 2009).
Where two headings read alike, the source gives them in different places.

Tested on: epithelial cell line KB (DSMZ ACC 136)
Assay: MTT assay of proliferation under varied riboflavin content and light exposure
Assay type: cell-based, human
Description: To address this question, three media, a) the RPMI 1640 without riboflavin and phenol red that is used in the method according to the invention and was manufactured according to our specifications by Biochrom, as well as two different RPMI 1640 charges purchased from Invitrogen which were each containing 532 nmol/L riboflavin, b) a phenol red-free (Gibco 11835), and c) a conventional RPMI 1640 (Gibco 21875) with 13.284 µmol/L phenol red. All media were supplemented with 2 mmol/L L-alanyl-1-glutamine as stabilized glutamine source (Biochrom K0302 Lot 0755 S) and the same amount of 10% (v/v) of heat-inactivated fetal calf serum (FCS) that was purchased from Invitrogen (Lot 41Q7554K) with a yield of 198 nmol/L riboflavin. […] These medium concentrations define the riboflavin concentrations in controls (see below).
In addition to the influences exerted by the different types of media alone, the riboflavin-dependent impact on the outcome of the docetaxel treatment was investigated. For this purpose 100 µl/well of docetaxel dilutions containing threefold the concentration indicated were added into the wells of microwell plates. The following seven docetaxel concentrations were tested: 19.38, 38.75, 77.5, 155, 310, 620, and 1,240 pmol/L.
To examine photoactivation-dependent riboflavin-mediated effects disturbing the outcome of ex-vivo chemoresponse-evaluation by conventional cell culture medium, and in particular in the absence of flavin-protecting experimental conditions, varying amounts of riboflavin were added. A stock solution of 200 µM (-)-riboflavin (CAS 83-68-5, Sigma R9504, FW=376.37 g/mol, purity >99%, cell culture tested) in phosphate buffered saline was diluted to adjust in each case the highest final concentration in culture (this means: after completion of the assay by addition of the other two components to the final assay volume of 300 µL) to exactly 10 µmol/L. Serial log10-dilutions were made from this concentration in each corresponding medium. These gave final concentrations in cell culture of 10.000, 1.018, 0.12, and 0.03 µmol/L in the case of medium a) (the medium according to the method of the invention), and concentrations of 10.000, 1.449, 0.594, and 0.508 µmol/L using media b) and c).
In general, each combination of riboflavin and docetaxel were tested in duplicate, and controls without additional riboflavin in quadruplicate for each experimental setting in the same 96-well plate. The experimental conditions were as follows: For each of the used media, two different plates were prepared simultaneously and either handled completely under flavin-protecting conditions (illumination only by sodium discharge lamps with an emission wavelength of 589 nm [i]), or in the same bench (Thermo MSC 12) with the installed light inside their working chamber switched on. The dilution of docetaxel and those of riboflavin in the particular medium were prepared for all four plates of each medium type prior to the other working steps under flavin-protecting conditions. Thus the administrations of these dilutions took about 20 min either under flavin-protecting conditions or illuminated conditions. After completed preparation of the plates that thereafter contained 200 µL of both diluted compounds, the plates were incubated 2 h in the incubator to allow for adjustment of the appropriate pH.
In between the stock culture of KB was harvested by trypsination of a 3-days stock culture (exponential growth phase). Stock cultures of KB cells always were grown without any antibiotic or antimycotic in phenol red- and riboflavin-free RPMI 1640 supplemented with 10% (v/v) FCS and were adapted to this medium for more than five passages. They were always handled at room temperature or warmer and were never exposed to light other than the light of a sodium discharge lamp with an emission wavelength of 589 nm for at least five passages. […]

[1] = medium a) (plate 01), 10 µmol/L riboflavin

- IC50 (Homo sapiens, Epithelial cell, Plate No. 05; Riboflavin 499 nmol/L; medium b) phenol red-free RPMI 1640, flavin-protecting conditions, read-out: IC50 for docetaxel with reference to control with same riboflavin content): 0.206 nM
- IC50 (Homo sapiens, Epithelial cell, Plate No. 05; Riboflavin 508 nmol/L; medium b) phenol red-free RPMI 1640, flavin-protecting conditions, read-out: IC50 for docetaxel with reference to control with same riboflavin content): 0.182 nM
- IC50 (Homo sapiens, Epithelial cell, Plate No. 05; Riboflavin 594 nmol/L; medium b) phenol red-free RPMI 1640, flavin-protecting conditions, read-out: IC50 for docetaxel with reference to control with same riboflavin content): 0.196 nM
- IC50 (Homo sapiens, Epithelial cell, Plate No. 05; Riboflavin 1449 nmol/L; medium b) phenol red-free RPMI 1640, flavin-protecting conditions, read-out: IC50 for docetaxel with reference to control with same riboflavin content): 0.197 nM
- IC50 (Homo sapiens, Epithelial cell, Plate No. 05; Riboflavin 10000 nmol/L; medium b) phenol red-free RPMI 1640, flavin-protecting conditions, read-out: IC50 for docetaxel with reference to control with same riboflavin content): 0.238 nM
- IC50 (Homo sapiens, Epithelial cell, Plate No. 09; Riboflavin 499 nmol/L; medium c) conventional RPMI 1640 with phenol red, flavin-protecting conditions, read-out: IC50 for docetaxel with reference to control with same riboflavin content): 0.233 nM
- IC50 (Homo sapiens, Epithelial cell, Plate No. 09; Riboflavin 508 nmol/L; medium c) conventional RPMI 1640 with phenol red, flavin-protecting conditions, read-out: IC50 for docetaxel with reference to control with same riboflavin content): 0.189 nM
- IC50 (Homo sapiens, Epithelial cell, Plate No. 09; Riboflavin 594 nmol/L; medium c) conventional RPMI 1640 with phenol red, flavin-protecting conditions, read-out: IC50 for docetaxel with reference to control with same riboflavin content): 0.201 nM
- IC50 (Homo sapiens, Epithelial cell, Plate No. 09; Riboflavin 1449 nmol/L; medium c) conventional RPMI 1640 with phenol red, flavin-protecting conditions, read-out: IC50 for docetaxel with reference to control with same riboflavin content): 0.284 nM
- IC50 (Homo sapiens, Epithelial cell, Plate No. 09; Riboflavin 10000 nmol/L; medium c) conventional RPMI 1640 with phenol red, flavin-protecting conditions, read-out: IC50 for docetaxel with reference to control with same riboflavin content): 0.394 nM
- IC50 (Homo sapiens, Epithelial cell, medium a) (plate 01), 10 µmol/L riboflavin, flavin-protecting conditions, read-out: IC50 relating to medium control): 0.224 nM
- IC50 (Homo sapiens, Epithelial cell, medium a) (plate 01), 10 µmol/L riboflavin, flavin-protecting conditions, read-out: IC50 with reference to individual control): 0.257 nM
- IC50 (Homo sapiens, Epithelial cell, plates 01, 05, 09 handled completely under flavin-protecting conditions, three types of RPMI 1640, read-out: IC50 values for docetaxel): ~0.2 nM
- IC50 as % of the IC50 at 20 nmol/L riboflavin, relating to medium control [1]: 107%
- IC50 as % of the IC50 detected in a) at 20 nmol/L riboflavin, individual control [1]: 128%
Compound: CC(=O)O[C@@]12CO[C@@H]1C[C@H](O)[C@@]1(C)C(=O)[C@H](O)C3=C(C)[C@@H](OC(=O)[C@H](O)[C@@H](NC(=O)OC(C)(C)C)c4ccccc4)C[C@@](O)([C@@H](OC(=O)c4ccccc4)[C@H]21)C3(C)C [docetaxel]
- IC50 (Homo sapiens, Epithelial cell, Plate No. 01; Riboflavin 10000 nmol/L; medium a), flavin-protecting conditions, read-out: IC50 for docetaxel normalized to medium control of medium with same riboflavin content): 0.123 nM
- IC50 (Homo sapiens, Epithelial cell, Plate No. 05; Riboflavin 499 nmol/L; medium b), flavin-protecting conditions, read-out: IC50 for docetaxel normalized to medium control of medium with same riboflavin content): 0.1 nM
- IC50 (Homo sapiens, Epithelial cell, Plate No. 05; Riboflavin 508 nmol/L; medium b), flavin-protecting conditions, read-out: IC50 for docetaxel normalized to medium control of medium with same riboflavin content): 0.088 nM
- IC50 (Homo sapiens, Epithelial cell, Plate No. 05; Riboflavin 594 nmol/L; medium b), flavin-protecting conditions, read-out: IC50 for docetaxel normalized to medium control of medium with same riboflavin content): 0.0949 nM
- IC50 (Homo sapiens, Epithelial cell, Plate No. 05; Riboflavin 1449 nmol/L; medium b), flavin-protecting conditions, read-out: IC50 for docetaxel normalized to medium control of medium with same riboflavin content): 0.0954 nM
- IC50 (Homo sapiens, Epithelial cell, Plate No. 05; Riboflavin 10000 nmol/L; medium b), flavin-protecting conditions, read-out: IC50 for docetaxel normalized to medium control of medium with same riboflavin content): 0.115 nM
- IC50 (Homo sapiens, Epithelial cell, Plate No. 09; Riboflavin 499 nmol/L; medium c), flavin-protecting conditions, read-out: IC50 for docetaxel normalized to medium control of medium with same riboflavin content): 0.1 nM
- IC50 (Homo sapiens, Epithelial cell, Plate No. 09; Riboflavin 508 nmol/L; medium c), flavin-protecting conditions, read-out: IC50 for docetaxel normalized to medium control of medium with same riboflavin content): 0.0813 nM
- IC50 (Homo sapiens, Epithelial cell, Plate No. 09; Riboflavin 594 nmol/L; medium c), flavin-protecting conditions, read-out: IC50 for docetaxel normalized to medium control of medium with same riboflavin content): 0.0865 nM
- IC50 (Homo sapiens, Epithelial cell, Plate No. 09; Riboflavin 1449 nmol/L; medium c), flavin-protecting conditions, read-out: IC50 for docetaxel normalized to medium control of medium with same riboflavin content): 0.122 nM
- IC50 (Homo sapiens, Epithelial cell, Plate No. 09; Riboflavin 10000 nmol/L; medium c), flavin-protecting conditions, read-out: IC50 for docetaxel normalized to medium control of medium with same riboflavin content): 0.169 nM
